# Data taken from patent US7868204B2, “Inhibitors of histone deacetylase” (MethylGene Inc., priority 2001, dated 2011).
# Read-outs that look alike come from different tables or passages of the source.
# Columns and labels:
# [1] = target: T1, cloned recombinant human HDAC-1 (Homo sapiens, UniProt Q13547); test: Human HDAC-1 enzyme inhibition, Assay 1 ([3H]-acetylated histone substrate, scintillation counting); format: biochemical
# T1 construct: made in house; host or cells: Baculovirus insect cell expression system
# In short: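 Recombinant human HDAC-1 from baculovirus-infected insect cells, preincubated with compound 30 min at 4° C. before reaction. Released [3H]-acetic acid extracted with ethyl acetate and counted by scintillation. IC50 taken from dose-response curves as concentration giving half-maximal inhibition.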
# [2] = test system: acetylated histone H-4 in T24 human bladder cancer cells; test: Histone H4 acetylation in whole cells by immunoblots; format: cell-based; details: 16 h
# In short: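 T24 cells were treated with HDAC inhibitors for 16 h; […] total histone protein was resolved by SDS/PAGE and immunoblotted with polyclonal anti-acetylated H4 antibody. ECL detection, with signal quantified by densitometry.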
# [3] = test system: HCT116 cells; test: MTT assay; format: cell-based; details: Homo sapiens, HCT116 cells, 72 hours
# In short: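 Cells plated one day before dosing, then exposed to compound 72 h at 37 °C, 5% CO2. MTT at 0.5 mg/ml final for 4 h, solubilized in DMF/SDS buffer pH 4.7; OD converted to cell number from a standard growth curve.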
# [4] = Table 5d, read-out: HDAC-1 IC50
# [5] = T-24, Table 5d, read-out: H4Ac(T24) EC50
# [6] = Table 5F, read-out: Human HDAC-1 IC50
# [7] = T-24, Table 5F, read-out: H4 Ac (T24) EC50
# [8] = Table 5b, read-out: Human HDAC-1 IC50
# [9] = T-24, Table 5b, read-out: H4Ac (T24) EC50
# [10] = Table 5a, read-out: Human HDAC-1 IC50
# [11] = T-24, Table 5a, read-out: H4Ac (T24) EC50
# [12] = Table 5E, read-out: Human HDAC-1 IC50
# [13] = T-24, Table 5E, read-out: H4 Ac (T24) EC50
# [14] = Table 5c, read-out: Human HDAC-1 IC50
# [15] = T-24, Table 5c, read-out: H4Ac (T24) EC50
# T1 sequence (Q13547 whole entry): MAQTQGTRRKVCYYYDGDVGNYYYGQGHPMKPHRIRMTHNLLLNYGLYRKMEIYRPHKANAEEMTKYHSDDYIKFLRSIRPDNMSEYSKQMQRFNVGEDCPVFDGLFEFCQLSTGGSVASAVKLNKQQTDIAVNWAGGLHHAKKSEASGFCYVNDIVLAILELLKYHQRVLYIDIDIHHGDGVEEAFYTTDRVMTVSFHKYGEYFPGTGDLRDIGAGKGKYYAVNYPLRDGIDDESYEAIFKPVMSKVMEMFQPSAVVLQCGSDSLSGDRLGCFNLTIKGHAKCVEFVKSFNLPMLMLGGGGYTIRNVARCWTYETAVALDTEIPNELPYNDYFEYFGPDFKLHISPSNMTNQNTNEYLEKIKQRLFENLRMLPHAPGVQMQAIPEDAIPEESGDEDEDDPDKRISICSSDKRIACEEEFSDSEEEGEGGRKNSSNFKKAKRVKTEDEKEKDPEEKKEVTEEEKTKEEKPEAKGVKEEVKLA
SMILES,"IC50 [1, 6]","EC50 [2, 7]","IC50 ([3]; HCT-116, 72 h, Table 5F)",other results
"COc1cc(N(Cc2ccc(/C=C/C(=O)Nc3ccccc3N)cc2)Cc2cc3ccccc3[nH]2)cc(OC)c1OC [Cpd 499, N-(2-Amino-phenyl)-3-{4-([(1 H-indol-2-ylmethyl)-(3,4,5-trimethoxy-phenyl)-amino]-methyl}-phenyl)-acrylamide]",–,–,–,"IC50 [1, 4]: > 25000 nM; EC50 [2, 5]: > 25000 nM; IC50 ([3]; HCT-116, Table 5d): 2000 nM"
COc1ccc(CNC2(C#Cc3ccc(C(=O)Nc4ccccc4N)cc3)CCCCC2)cc1 [Cpd 192],2000 nM,3000 nM,1000 nM,–
"Nc1ccccc1NC(=O)c1ccc(Cn2nnc3ccc(Cl)cc3c2=O)cc1 [Cpd 348, N-(2-Amino-phenyl)-4-(6-chloro-4-oxo-4H-benzo[d][1,2,3]triazin-3-ylmethyl)-benzamide]",2000 nM,1000 nM,300 nM,–
"Nc1ccccc1NC(=O)c1ccc(CNc2ccc3c(c2)OCCO3)cc1 [Cpd 400, N-(2-Amino-phenyl)-4-[(2,3-dihydro-benzo[1,4]dioxin-6-ylamino)-methyl]-benzamide]",8000 nM,2000 nM,300 nM,–
COCCNc1nc(NCCc2ccccc2)nc(NCc2ccc(C(=O)Nc3ccccc3N)cc2)n1 [Cpd 474],–,–,–,"IC50 [1, 8]: 3000 nM; EC50 [2, 9]: 1000 nM; IC50 ([3]; HCT-116, 72 h, Table 5b): 1000 nM"
"Nc1ccccc1NC(=O)c1ccc(CN2C(=O)COc3ccccc32)cc1 [Cpd 362, N-(2-Amino-phenyl)-4-(3-oxo-2,3-dihydro-benzo[1,4]oxazin-4-ylmethyl)-benzamide]",2000 nM,1000 nM,700 nM,–
"COc1cc(CNc2ccc3sc(C(=O)Nc4ccccc4N)cc3c2)cc(OC)c1OC [compound 590, 5-(3,4,5-Trimethoxy-benzylamino)-benzo[b]thiophene-2-carboxylic acid (2-amino-phenyl)-amide]",2000 nM,3000 nM,2000 nM,–
"CC(=O)Nc1ccc(NCc2ccc(C(=O)Nc3ccccc3N)cc2)cc1 [Cpd 401, 4-[(4-Acetylamino-phenylamino)methyl]-N-(2-amino-phenyl)-benzamide]",6000 nM,2000 nM,300 nM,–
COc1ccc(CCNc2nc(NCc3ccc(C(=O)Nc4ccccc4N)cc3)nc(NC3CC3)n2)cc1 [Cpd 476],–,–,–,"IC50 [1, 8]: 2000 nM; EC50 [2, 9]: 2000 nM; IC50 ([3]; HCT-116, 72 h, Table 5b): 1000 nM"
Nc1ccccc1NC(=O)c1ccc(CNc2nc3ccc(OCCN4CCOCC4)cc3s2)cc1 [Cpd 228],3000 nM,1000 nM,300 nM,–
"Nc1ccccc1NC(=O)c1ccc(CC2C(=O)c3ccccc3C2O)cc1 (stereo not drawn) [Cpd 365, N-(2-Amino-phenyl)-4-(1-hydroxy-3-oxo-indan-2-ylmethyl)-benzamide]",3000 nM,3000 nM,600 nM,–
"Nc1ccccc1NC(=O)c1ccc(Cc2noc(-c3cccnc3)n2)cc1 [Cpd 357, N-(2-Amino-phenyl)-4-(5-pyridin-3-yl-[1,2,4]oxadiazol-3-ylmethyl)-benzamide]",4000 nM,2000 nM,400 nM,–
"COc1ccccc1CCNc1nc(N)nc(NCc2ccc(C(=O)Nc3ccccc3N)cc2)n1 [Cpd 23, 4-({4-Amino-6-[2-(2-methoxy-phenyl)-ethylamino]-[1,3,5]triazin-2-ylamino}-methyl)-N-(2-amino-phenyl)-benzamide]",–,–,–,"IC50 [1, 10]: 2000 nM; EC50 [2, 11]: 1000 nM; IC50 ([3]; HCT-116, 72 h, Table 5a): 700 nM"
"Nc1ccccc1NC(=O)c1ccc(CNc2ccc(N3CCOCC3)cc2)cc1 [Cpd 402, N-(2-Amino-phenyl)-4-[(4-morpholin-4-yl-phenylamino)-methyl]-benzamide]",14000 nM,1000 nM,400 nM,–
Nc1nc(NCc2ccc(/C=C/C(=O)Nc3ccccc3N)cc2)nc(NC2Cc3ccccc3C2)n1 [Cpd 83],–,–,–,"IC50 [1, 10]: 3000 nM; EC50 [2, 11]: 5000 nM; IC50 ([3]; HCT-116, 72 h, Table 5a): 5000 nM"
Nc1ccccc1NC(=O)c1ccc(CNc2ccc3[nH]c(SCc4cccnc4)nc3c2)cc1 [Cpd 451],4000 nM,3000 nM,200 nM,–
Nc1ccccc1NC(=O)c1ccc(CNc2nc(NCCc3ccccc3)nc(NC3CC3)n2)cc1 [Cpd 471],–,–,–,"IC50 [1, 8]: 400 nM; EC50 [2, 9]: 3000 nM; IC50 ([3]; HCT-116, 72 h, Table 5b): 1000 nM"
"Nc1ccccc1NC(=O)c1ccc(CNc2ccc(F)cc2)cc1 [Cpd 415, N-(2-Amino-phenyl)-4-[(4-fluoro-phenylamino)-methyl]-benzamide]",3000 nM,3000 nM,1000 nM,–
Nc1nc(NCCCc2ccccc2)nc(NCc2ccc(C(=O)Nc3ccccc3N)cc2)n1 [Cpd 470],–,–,–,"IC50 [1, 8]: 2000 nM; EC50 [2, 9]: 3000 nM; IC50 ([3]; HCT-116, 72 h, Table 5b): 700 nM"
CN1C(=O)C2(OCCO2)c2cc(NCc3ccc(C(=O)Nc4ccccc4N)cc3)ccc21 [Cpd 459],4000 nM,1000 nM,300 nM,–

SMILES,"IC50 [1, 6]","EC50 [2, 7]","IC50 ([3]; HCT-116, 72 h, Table 5F)",other results
"Cc1nn(-c2ccccc2)c(C)c1Cc1ccc(C(=O)Nc2ccccc2N)cc1 [compound 277, N-(2-Amino-phenyl)-4-(3,5-dimethyl-1-phenyl-1H-pyrazol-4-ylmethyl)-benzamide]",4000 nM,1000 nM,300 nM,–
"Nc1ccccc1NC(=O)/C=C/c1ccc(NCc2cccc(O)c2)nc1 [Cpd 524, N-(2-Amino-phenyl)-3-[6-(3-hydroxy-benzylamino)-pyridin-3-yl]-acrylamide]",–,–,–,"IC50 [1, 4]: 3000 nM; EC50 [2, 5]: 3000 nM; IC50 ([3]; HCT-116, Table 5d): 2000 nM"
"Nc1ccccc1NC(=O)c1ccc(NCc2cccc(F)c2)cc1 [Cpd 416, N-(2-Amino-phenyl)-4-(3-fluoro-benzylamino)-benzamide]",3000 nM,1000 nM,600 nM,–
Nc1ccccc1NC(=O)c1ccc(CSc2nnc(-c3ccccc3)o2)cc1 [Cpd 177],–,–,–,"IC50 [1, 12]: 1000 nM; EC50 [2, 13]: 1000 nM; IC50 ([3]; HCT-116, 72 h, Table 5E): 400 nM"
COc1nc(NCc2ccc(C(=O)Nc3ccccc3N)cc2)nc(NC2Cc3ccccc3C2)n1 [Cpd 214],–,–,–,"IC50 [1, 8]: 3000 nM; EC50 [2, 9]: 1000 nM; IC50 ([3]; HCT-116, 72 h, Table 5b): 900 nM"
COCCn1cnc2c(NCc3ccc(C(=O)Nc4ccccc4N)cc3)nc(Cl)nc21 [Cpd 243],2000 nM,1000 nM,800 nM,–
COc1cccc(SCc2ccc(C(=O)Nc3ccccc3N)cc2)c1 [Cpd 394],4000 nM,25000 nM,2000 nM,–
Nc1ccccc1NC(=O)/C=C/c1ccc(CNC(=O)OCc2cccnc2)cc1 [Cpd 104],–,–,–,"IC50 [1, 14]: 10000 nM; EC50 [2, 15]: 5000 nM; IC50 ([3]; HCT-116, 72 h, Table 5c): 9000 nM"
Nc1ccccc1NC(=O)c1ccc(-c2cccc(CNCc3ccccn3)c2)cc1 [Cpd 187],2000 nM,2000 nM,5000 nM,–
Nc1ccccc1NC(=O)c1ccc(CSc2nc3ccccc3s2)cc1 [Cpd 172],–,–,–,"IC50 [1, 12]: 400 nM; EC50 [2, 13]: 3000 nM; IC50 ([3]; HCT-116, 72 h, Table 5E): 1000 nM"
"COc1cc(Nc2nc(N)nc(NCc3ccc(C(=O)Nc4ccccc4N)cc3)n2)cc(OC)c1OC [Cpd 21, N-(2-Amino-phenyl)-4-{[4-amino-6-(3,4,5-trimethoxy-phenylamino)-[1,3,5]triazin-2-ylamino]-methyl}-benzamide]",–,–,–,"IC50 [1, 10]: 4000 nM; EC50 [2, 11]: 25000 nM; IC50 ([3]; HCT-116, 72 h, Table 5a): 4000 nM"
"COc1cc(NCc2ccc(-c3ccc(C(=O)Nc4ccccc4N)cc3)cc2)cc(OC)c1OC [Cpd 189, N-(2-Amino-phenyl)-4-[4-{(3,4,5-trimethoxy-phenylamino)-methyl}-phenyl]-benzamide]",3000 nM,5000 nM,2000 nM,–
Nc1ccccc1NC(=O)c1ccc(NCCc2ccc(F)cc2)nc1 [Cpd 174],–,–,–,"IC50 [1, 12]: 4000 nM; EC50 [2, 13]: 5000 nM; IC50 ([3]; HCT-116, 72 h, Table 5E): 400 nM"
"COc1ccc(CNc2ccc(C(=O)Nc3ccccc3N)cc2)cc1 [Cpd 414, N-(2-Amino-phenyl)-4-(4-methoxy-benzylamino)-benzamide]",3000 nM,1000 nM,1000 nM,–
Nc1ccccc1NC(=O)c1ccc(Cn2c(=O)c3ccccc3n(CCN3CCOCC3)c2=O)cc1 [Cpd 341],4000 nM,3000 nM,1000 nM,–
COc1ccc(NCc2ccc(C(=O)Nc3ccccc3N)cc2)cc1OCc1cccnc1 [Cpd 405],5000 nM,5000 nM,1000 nM,–
"Nc1ccccc1NC(=O)c1ccc(CNc2ccc(OC(F)(F)F)cc2)cc1 [Cpd 422, N-(2-Amino-phenyl)-4-[(4-trifluoromethoxy-phenylamino)-methyl]-benzamide]",< 50 nM,5000 nM,900 nM,–
"COc1cc(N(CCN2CCOCC2)Cc2ccc(/C=C/C(=O)Nc3ccccc3N)cc2)cc(OC)c1OC [Cpd 523, N-(2-Amino-phenyl)-3-(4-{[(2-morpholin-4-yl-ethyl)-(3,4,5-trimethoxy-phenyl)-amino]-methyl}-phenyl)-acrylamide]",–,–,–,"IC50 [1, 4]: 8000 nM; EC50 [2, 5]: 10000 nM; IC50 ([3]; HCT-116, Table 5d): 6000 nM"
Nc1ccccc1NC(=O)/C=C/c1ccc(NC/C=C/c2ccccc2)nc1 [Cpd 112],–,–,–,"IC50 [1, 14]: 2000 nM; EC50 [2, 15]: 5000 nM; IC50 ([3]; HCT-116, 72 h, Table 5c): 5000 nM"
